Experimental data from ChEMBL document CHEMBL5728232, “Multi-functionalized polysaccharide compounds and use thereof for targeting the cation-independent mannose 6-phosphate receptor” (2021).

Biological target: Cation-independent mannose-6-phosphate receptor (Homo sapiens, UniProt P11717)
Assay: Binding of the M6P Analogs of the Invention with CI-M6PR: 96-Well plates (Maxisorp Nunc) are incubated overnight at 4° C. with 200 μl of PMP (pentamannose 6-phosphate) at the concentration of 200 μg·ml−1, in carbonate buffer (NaHCO3/Na2CO3 at 0.1M, pH 9.6). The following day, the solution containing the residual PMP is discarded and the wells are saturated, for 1 h at ambient temperature, with 360 μl of 1% gelatin (Type A from Porcine Skin) diluted in PBS (1.9 mM NaH2PO4, 8.1 mM Na2PO4 and 154 mM NaCl, pH 7.4). The wells are then rinsed five times with PBS to which 0.2% gelatin has been added. All the washes and also the dilutions are carried out in the solution of PBS to which 0.2% gelatin has been added. The M6P analogs to be tested at the various concentrations (from 10−2 to 10−7 M) are pre-incubated in the presence of pre-biotinylated CI-M6PR (M6PRb) ([…]) for 20 min, then 200 μl of the mixture are incubated in the wells for 2 h, at ambient temperature. After three washes, the wells are incubated for 1 h with a streptavidin-peroxidase solution (250 μl per well; 3.10−8 M). After three more washes, 200 μl of a solution of OPD (o-phenylenediamine, 1 mg·ml−1 in citrate buffer, pH 5.0, and 1 μl 30% H2O2.ml−1; Sigma Aldrich) are added. […]

Chain of Cation-independent mannose-6-phosphate receptor (P11717 whole entry): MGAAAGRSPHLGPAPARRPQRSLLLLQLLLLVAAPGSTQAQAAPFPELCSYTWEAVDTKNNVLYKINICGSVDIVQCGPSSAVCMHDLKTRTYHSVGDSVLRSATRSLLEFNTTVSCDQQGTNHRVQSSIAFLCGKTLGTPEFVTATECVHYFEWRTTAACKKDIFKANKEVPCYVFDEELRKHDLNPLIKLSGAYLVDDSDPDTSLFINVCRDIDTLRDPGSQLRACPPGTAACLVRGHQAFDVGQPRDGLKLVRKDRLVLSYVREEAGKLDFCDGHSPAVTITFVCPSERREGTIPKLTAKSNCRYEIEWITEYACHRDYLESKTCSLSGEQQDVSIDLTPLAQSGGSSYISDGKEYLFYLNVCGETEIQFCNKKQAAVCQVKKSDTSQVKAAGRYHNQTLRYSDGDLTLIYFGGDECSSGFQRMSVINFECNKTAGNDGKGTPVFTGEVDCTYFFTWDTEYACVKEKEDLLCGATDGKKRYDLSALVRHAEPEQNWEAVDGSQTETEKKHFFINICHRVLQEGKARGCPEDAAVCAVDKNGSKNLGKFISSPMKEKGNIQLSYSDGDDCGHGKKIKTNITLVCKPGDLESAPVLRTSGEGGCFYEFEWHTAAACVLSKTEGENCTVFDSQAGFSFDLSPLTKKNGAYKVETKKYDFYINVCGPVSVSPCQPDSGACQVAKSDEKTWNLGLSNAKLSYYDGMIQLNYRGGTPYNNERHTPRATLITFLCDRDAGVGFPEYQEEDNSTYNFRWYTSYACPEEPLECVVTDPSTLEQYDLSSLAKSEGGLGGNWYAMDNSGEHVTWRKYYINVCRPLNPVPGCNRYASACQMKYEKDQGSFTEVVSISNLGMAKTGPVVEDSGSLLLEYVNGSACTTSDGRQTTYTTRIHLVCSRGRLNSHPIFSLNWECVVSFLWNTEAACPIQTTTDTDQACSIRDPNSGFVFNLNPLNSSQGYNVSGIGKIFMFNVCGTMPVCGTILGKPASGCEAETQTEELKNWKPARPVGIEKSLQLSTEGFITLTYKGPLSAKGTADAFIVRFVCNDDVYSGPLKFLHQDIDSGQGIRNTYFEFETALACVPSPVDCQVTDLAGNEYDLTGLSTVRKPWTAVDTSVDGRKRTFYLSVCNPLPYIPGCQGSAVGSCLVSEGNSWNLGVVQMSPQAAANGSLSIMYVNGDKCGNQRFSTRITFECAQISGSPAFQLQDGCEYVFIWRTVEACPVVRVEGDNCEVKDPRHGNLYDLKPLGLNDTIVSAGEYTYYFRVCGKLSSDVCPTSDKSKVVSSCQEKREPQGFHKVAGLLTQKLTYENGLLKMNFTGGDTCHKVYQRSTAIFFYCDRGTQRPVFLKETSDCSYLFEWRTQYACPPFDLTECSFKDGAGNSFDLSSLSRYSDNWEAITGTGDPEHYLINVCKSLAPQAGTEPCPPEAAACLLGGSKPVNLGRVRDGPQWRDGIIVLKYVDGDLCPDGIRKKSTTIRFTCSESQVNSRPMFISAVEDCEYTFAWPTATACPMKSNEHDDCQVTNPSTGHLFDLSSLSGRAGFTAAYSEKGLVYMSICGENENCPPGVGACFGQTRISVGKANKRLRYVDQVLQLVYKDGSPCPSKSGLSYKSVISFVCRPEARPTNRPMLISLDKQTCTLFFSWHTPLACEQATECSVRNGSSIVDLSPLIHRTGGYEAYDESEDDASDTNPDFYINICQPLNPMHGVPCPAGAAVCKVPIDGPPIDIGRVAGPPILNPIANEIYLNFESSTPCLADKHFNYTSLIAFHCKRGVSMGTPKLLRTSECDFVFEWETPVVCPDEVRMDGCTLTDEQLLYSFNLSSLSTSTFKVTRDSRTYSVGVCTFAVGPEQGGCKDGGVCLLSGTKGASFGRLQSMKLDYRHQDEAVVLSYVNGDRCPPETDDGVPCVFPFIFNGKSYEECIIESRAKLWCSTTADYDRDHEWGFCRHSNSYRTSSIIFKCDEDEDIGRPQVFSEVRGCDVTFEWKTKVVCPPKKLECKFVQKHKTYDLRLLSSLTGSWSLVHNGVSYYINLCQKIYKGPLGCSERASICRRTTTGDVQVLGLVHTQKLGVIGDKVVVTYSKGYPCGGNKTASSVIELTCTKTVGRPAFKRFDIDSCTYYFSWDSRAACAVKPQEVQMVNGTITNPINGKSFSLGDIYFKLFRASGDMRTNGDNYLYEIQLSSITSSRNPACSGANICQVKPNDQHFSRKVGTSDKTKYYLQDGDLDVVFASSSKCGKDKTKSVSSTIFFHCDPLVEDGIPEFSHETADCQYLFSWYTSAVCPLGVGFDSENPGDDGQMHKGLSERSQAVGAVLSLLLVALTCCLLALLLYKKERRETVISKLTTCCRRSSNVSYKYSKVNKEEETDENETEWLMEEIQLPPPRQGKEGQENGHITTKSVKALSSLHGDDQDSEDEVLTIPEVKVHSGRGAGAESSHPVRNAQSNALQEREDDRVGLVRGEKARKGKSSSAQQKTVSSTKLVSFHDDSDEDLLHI

IC50: 5 µM
SMILES: NCCO[C@H]1OC(CO)[C@@H](O)[C@H](O)C1O[C@H]1OC(CCP(=O)(O)O)[C@@H](O)[C@H](O)C1O (stereo partly specified)
